pEC50: −log10 of the molar value. “Also recorded” adds a separate entry of the source.
Columns and labels:
[1] = system: mesenteric vessels isolated from a TRPM8 knockout mouse; experiment: Wire myography, KPSS-contracted mesenteric vessels from TRPM8 knockout mice; conditions: TRPM8 KO tissue; 50μM
[2] = system: untransfected HEK293 cells; experiment: Confocal Ca2+ imaging in untransfected HEK293 cells (control); assay type: cell-based, human; conditions: menthol 300μM, ±PZQ 100μM, ACh 100μM, capsaicin 1μM, AITC 100μM
Description: HEK293 cells (ATCC CRL-1573.3) were cultured in DMEM supplemented with 10% fetal bovine serum (FBS), penicillin (100 units/ml), streptomycin (100 μg/ml), and L-glutamine (290 μg/ml). Cells were transiently transfected (Lipofectamine LTX, Thermo Fisher) at a density of 2x10^6 cells per T-25 cell-culture flask with TRP channel cDNA. For Ca^2+ imaging assays, HEK293 cells were seeded onto 8-chambered coverglass slides (Thermo Fisher, 115411PK), at a density of 1x10^4 cells one day prior to imaging. Cells were washed twice with HBSS, and incubated with fluo-4-AM (4μM), pluronic F127 (0.4%) and probenecid (2.5mM) for 25 minutes at room temperature. Cells were then washed twice with HBSS, and left at room temperature (30 minutes) for de-esterification. Dishes were mounted on an Olympus IX81 microscope and fluorescence changes (λex = 488nM, λem = 513±15nm bandpass filter) monitored using a Yogokawa spinning disk confocal (CSU-X-M1N) and an Andor iXon Ultra 888 EMCCD camera.

TRPA1 = system: TRPA1; parameters: method as in PMID 29054683; conditions: ≤100μM; cited from earlier work
TRPV1 = TRPV1 (Homo sapiens, UniProt Q8NER1); parameters: method as in PMID 29054683; conditions: 100μM; cited from earlier work
hTRPM8 = hTRPM8 (Homo sapiens, UniProt Q7Z2W7); parameters: host or cells: HEK293 (ATCC CRL-1573.3), transient; method as in PMID 29054683; conditions: by microfluorimetry; partial agonist; cited from earlier work
hTRPM8, sequence (Q7Z2W7 whole entry): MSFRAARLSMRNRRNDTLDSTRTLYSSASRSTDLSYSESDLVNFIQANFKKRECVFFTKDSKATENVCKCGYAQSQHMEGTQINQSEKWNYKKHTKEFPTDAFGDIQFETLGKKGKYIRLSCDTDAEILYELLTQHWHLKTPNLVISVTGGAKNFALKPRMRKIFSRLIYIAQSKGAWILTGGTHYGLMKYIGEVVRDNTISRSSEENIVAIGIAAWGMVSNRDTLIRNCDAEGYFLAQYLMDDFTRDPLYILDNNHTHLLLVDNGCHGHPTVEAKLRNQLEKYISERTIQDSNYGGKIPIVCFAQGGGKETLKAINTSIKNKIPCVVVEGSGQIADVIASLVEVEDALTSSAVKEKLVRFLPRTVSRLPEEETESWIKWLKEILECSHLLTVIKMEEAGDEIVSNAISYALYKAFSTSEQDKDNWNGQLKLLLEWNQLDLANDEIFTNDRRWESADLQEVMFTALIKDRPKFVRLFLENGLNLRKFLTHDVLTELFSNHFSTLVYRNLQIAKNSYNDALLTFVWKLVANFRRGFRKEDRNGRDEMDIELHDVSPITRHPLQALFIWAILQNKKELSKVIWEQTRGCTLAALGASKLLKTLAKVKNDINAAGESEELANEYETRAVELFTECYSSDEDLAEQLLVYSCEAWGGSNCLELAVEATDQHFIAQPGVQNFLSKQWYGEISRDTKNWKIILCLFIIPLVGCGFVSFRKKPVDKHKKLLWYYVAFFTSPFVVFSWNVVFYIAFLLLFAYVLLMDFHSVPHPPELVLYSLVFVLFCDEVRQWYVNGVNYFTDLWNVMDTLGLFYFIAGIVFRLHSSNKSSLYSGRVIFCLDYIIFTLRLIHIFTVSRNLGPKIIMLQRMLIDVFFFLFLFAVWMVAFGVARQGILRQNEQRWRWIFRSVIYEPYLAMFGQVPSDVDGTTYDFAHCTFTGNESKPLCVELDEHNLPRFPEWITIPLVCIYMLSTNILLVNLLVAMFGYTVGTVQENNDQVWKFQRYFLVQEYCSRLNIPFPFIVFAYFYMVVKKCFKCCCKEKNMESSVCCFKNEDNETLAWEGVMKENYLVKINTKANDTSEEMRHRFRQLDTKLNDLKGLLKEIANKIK

TRPV1, sequence (Q8NER1 whole entry): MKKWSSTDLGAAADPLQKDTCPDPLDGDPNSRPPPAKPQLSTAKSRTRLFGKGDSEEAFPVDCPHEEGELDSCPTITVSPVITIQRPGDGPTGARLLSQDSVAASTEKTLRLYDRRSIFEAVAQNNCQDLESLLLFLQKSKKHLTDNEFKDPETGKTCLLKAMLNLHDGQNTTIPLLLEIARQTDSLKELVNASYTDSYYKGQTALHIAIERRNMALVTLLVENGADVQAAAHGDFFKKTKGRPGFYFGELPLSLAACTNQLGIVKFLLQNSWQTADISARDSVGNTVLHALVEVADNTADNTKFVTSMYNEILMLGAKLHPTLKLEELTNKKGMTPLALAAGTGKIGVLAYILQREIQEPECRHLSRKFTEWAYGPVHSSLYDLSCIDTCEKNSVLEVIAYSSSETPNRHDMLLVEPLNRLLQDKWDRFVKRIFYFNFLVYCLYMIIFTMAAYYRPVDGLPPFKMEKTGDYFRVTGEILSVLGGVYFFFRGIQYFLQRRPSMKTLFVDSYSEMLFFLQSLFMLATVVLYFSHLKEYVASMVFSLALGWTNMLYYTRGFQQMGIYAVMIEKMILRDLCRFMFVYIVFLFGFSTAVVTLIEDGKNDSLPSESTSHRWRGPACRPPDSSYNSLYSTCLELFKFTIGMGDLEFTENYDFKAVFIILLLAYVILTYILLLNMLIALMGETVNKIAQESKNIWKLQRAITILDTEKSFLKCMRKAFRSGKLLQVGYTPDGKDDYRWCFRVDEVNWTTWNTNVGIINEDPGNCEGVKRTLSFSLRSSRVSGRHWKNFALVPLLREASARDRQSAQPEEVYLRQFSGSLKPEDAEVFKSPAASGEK

Row | Structure (SMILES) | extent of relaxation [1] | Ca2+ response in untransfected HEK293 cells [2] | activity against TRPA1 (TRPA1) | activation of TRPV1 (TRPV1) | pEC50 (hTRPM8)
1 | O=C(C1CCCCC1)N1CC(=O)N2CCc3ccccc3[C@H]2C1 [(S)-PZQ] | ~ 30 % of peak KPSS-evoked tone | – | – | – | –
2 | O=C(C1CCCCC1)N1CC(=O)N2CCc3ccccc3C2C1 (racemic) [±PZQ, praziquantel] | – | neither ±PZQ or menthol elevated cytoplasmic Ca^2+ levels; also recorded: neither the addition of the TRPV1 agonist capsaicin (1μM) nor addition of ±PZQ evoked a Ca^2+ response; also recorded: without effect | lack of activity | low potency activation | ~4.60
